This note sets out measurements from patent US7060657B2, “Combinations of cyclohexanedione oxime herbicides and safeners” (Bayer CropScience GmbH, priority 2002, dated 2006).

What all share (type): in vivo
Data set [1] deals with Triticum aestivum (winter wheat). As to the kind of experiment: Post-emergence field trial on winter wheat (Example 5). Conditions: 3-5 leaf growth stage, 21 days after treatment. How it is done:
(§1) The numbers in the columns refer to the percentage damage to the crop or weed. Winter wheat was grown outdoors on plots under natural outdoor conditions, and seeds of typical harmful plants were laid out. Treatment with the herbicide (A), the safener (B) and the herbicide-safener combination (A)+(B) was carried out after the harmful plants had emerged and the wheat was in the growth stage between 3 and 5 leaves. The effect of the composition was assessed 28 days after treatment by scoring visually in comparison with untreated controls. Field trials were carried out according to the above Example 1 and applying a mixture of cycloxydim and fenoxaprop-P-ethyl+mefenpyr-diethyl to winter wheat and the weed Avena fatua at the 3–5 leaf growth stage. Assessment was 21 days after treatment.

The subject of the next data set is Avena fatua. Put plainly: Post-emergence field trial on weeds (Example 5). Conditions: 3-5 leaf growth stage, 21 days after treatment. How it is done:
as §1

For data set [2], the system named is Hordeum vulgare (summer barley). As to the kind of experiment: Post-emergence field trials, selectivity in barley (Examples 2-4). How it is done:
(§2) The numbers in the columns refer to the percentage damage to the crop or weed.
(§3) Winter wheat was grown outdoors on plots under natural outdoor conditions, and seeds of typical harmful plants were laid out. Treatment with the herbicide (A), the safener (B) and the herbicide-safener combination (A)+(B) was carried out after the harmful plants had emerged and the wheat was in the growth stage between 3 and 5 leaves. The effect of the composition was assessed 28 days after treatment by scoring visually in comparison with untreated controls.
(§4) Field trials were carried out according to the above Example 1 but using the crops barley and durum wheat and applying a mixture of clethodim and mefenpyr-diethyl.
(§5) Field trials were carried out according to the above Example 2 and applying a mixture of clethodim and fenoxaprop-P-ethyl plus mefenpyr-diethyl.
(§6) Field trials were carried out according to the above Example 2 and applying a mixture of tepraloxydim and mefenpyr-diethyl, or tepraloxydim and fenoxaprop-P-ethyl plus mefenpyr-diethyl.

Data set [3] concerns Triticum durum desf. (durum wheat). Put plainly: Post-emergence field trials, selectivity in durum wheat (Examples 2-4). How it is done:
as §2, §3, §4, §5, §6

Data set [4] relates to Triticum aestivum (winter wheat). As to the kind of experiment: Post-emergence field trial, selectivity in winter wheat (Example 1). Conditions: 28 days after treatment. How it is done: as §2
(§7) Post-Emergence Effect on Weeds and Selectivity in Winter Wheat (Field Trials)
as §3

In a further data set the test system is Alopecurus myosuroides. As to the kind of experiment: Post-emergence field trial, effect on weeds (Example 1). Particulars: 28 days after treatment. How it is done:
as §2, §7, §3
(§8) The percentage control of the weed species are shown in comparison with the expected values given in parentheses.

In the next data set the test system is Phalaris minor. Described as above. Conditions: 28 days after treatment. How it is done:
as §2, §7, §3, §8

With `CCCC(=NOCC)C1=C(O)CC(C2CCCSC2)CC1=O` (racemic) [Compound A5, (±)-2-[1-(ethoxyimino)butyl]-3-hydroxy-5-thian-3-ylcyclohex-2-enone], the “Phytotox (%) on TRZAW” value in data set [1] (40 g a.i./ha) came to 16%. Besides, in the data set on Avena fatua (40 g a.i./ha), the “Phytotox (%) on AVEFA” value turned out to be 65%.
Take `CCSC(C)CC1CC(=O)C(/C(CC)=N/OC/C=C/Cl)=C(O)C1` (racemic) [(A4), (±)-2-[(E)-1-[(E)-3-chloroallyloxyimino]propyl]-5-[2-(ethylthio)propyl]-3-hydroxycyclohex-2-enone]: the “Phytotox (%) on HORVS” value was determined as 51% in data set [2] (7.5 g ai/ha) and 67% in data set [2] (15 g ai/ha). Moreover, the “Phytotox (%) on TRZDU” value in data set [3] (7.5 g ai/ha) is recorded as 32%; in data set [3] (15 g ai/ha), 56%.
As to `CCOC(=O)C1=NN(c2ccc(Cl)cc2Cl)C(C)(C(=O)OCC)C1` (stereo not drawn) [(B1), ethyl 1-(2,4-dichlorophenyl)-5-(ethoxycarbonyl)-5-methyl-2-pyrazoline-3-carboxylate], the “Phytotox (%) on TRZAW” value in data set [4] (11 g a.i./ha), in data set [4] (45 g a.i./ha) and in data set [1] (71 g a.i./ha) was 0% each time. For the same compound, the “Phytotox (%) on ALOMY” value in the data set on Alopecurus myosuroides (11 g a.i./ha) and with Alopecurus myosuroides (45 g a.i./ha) was 0% throughout. For the same compound, the “Phytotox (%) on PHAMI” value in the data set with Phalaris minor (11 g a.i./ha) and with Phalaris minor (45 g a.i./ha) was 0% each time. The “Phytotox (%) on HORVS” value in data set [2] (100 g ai/ha) is recorded as 0%. In addition, the “Phytotox (%) on TRZDU” value in data set [3] (100 g ai/ha) stood at 0%. In the data set with Avena fatua (71 g a.i./ha), the “Phytotox (%) on AVEFA” value amounted to 0%.
Regarding `CCCC(=NOCC)C1=C(O)CC(CC(C)SCC)CC1=O` (racemic) [Compound A6, (±)-(EZ)-2-(1-ethoxyiminobutyl)-5-[2-(ethylthio)propyl]-3-hydroxycyclohex-2-enone], the “Phytotox (%) on TRZAW” value in data set [4] (72 g a.i./ha) is 28%. The “Phytotox (%) on ALOMY” value in the data set with Alopecurus myosuroides (72 g a.i./ha) is given as 70%. For the same compound, the “Phytotox (%) on PHAMI” value in the data set on Phalaris minor (72 g a.i./ha) was determined as 55%.
For `CCC(=NOC/C=C/Cl)C1=C(O)CC(C2CCOCC2)CC1=O` (racemic) [(A7), (EZ)-(RS)-2-{1-[(2E)-3-chloroallyloxyimino]propyl}-3-hydroxy-5-perhydropyran-4-ylcyclohex-2-en-1-one], the “Phytotox (%) on HORVS” value in data set [2] (8.25 g ai/ha) turned out to be 78%. Besides, in data set [3] (8.25 g ai/ha), the “Phytotox (%) on TRZDU” value is 70%.
